Experimental data from patent US10751356B2, “Compositions and methods for transient up-regulation of Myc in B-cell lymphomas for enhancing P53 independent apoptotic responses to chemotherapy” (THE CHILDREN'S HOSPITAL OF PHILADELPHIA, priority 2013, dated 2020).

Key:
Ramos cells = assay: Yo-Pro flow cytometry of Ramos cells, apoptotic response to TRAIL (FIG. 8); type: cell-based, human; settings: Ramos cells pre-treated with CHIR99021 for 2 hours followed by 5 h of TRAIL
Method: Ramos cells where left untreated (top-left panel), treated with TRAIL for 5 h (top-right panel), treated with CHIR99021 alone (bottom-left panel) or pre-treated with CHIR99021 for 2 hours followed by 5 h of TRAIL (bottom-right panel). Percentage of death cells was measured by incorporation of the nuclear staining Yo-Pro. Percentages of living and apoptotic cells are shown in the M4 and M5 gates respectively. […] TRAIL engages the extrinsic apoptotic pathway, activating Caspase-8, and is currently in clinical trials for the treatment of different oncological malignancies (reviewed in Stuckey and Shah, Trends in Mol Med 2013).

Raji cells [1] = assay: Caspase-3/7 Glo activity in Raji cells treated with TRAIL with or without CHIR-99021 (FIG. 9B); type: cell-based, human; settings: increasing concentrations of TRAIL in presence or absence of CHIR-99021
Method: (§1) Raji cells were treated with indicated concentrations of TRAIL for 16 h in the presence or absence of CHIR-99021. (FIG. 9A) Immunoblotting with antibodies to detect cleavage of PARP and caspase-8, as well as Myc, beta-catenin and loading controls Tutbulin, Actin and GAPDH. (FIG. 9B) Caspase-3/7 activity were measured using the bioluminescent-based Caspase-3/7 Glo Kit (Promega). Fold increase in caspase activities relative to untreated cells, are shown for cells treated with TRAIL alone (light grey bars) or with TRAIL and CHIR-99021 (dark grey bars).
(§2) This finding is relevant since, as mentioned above, Threonine-58 is a hot spot for mutations in Burkitt's lymphoma (Smith-Sorensen et al, JBC 1996).

Raji cells [2] = assay: Immunoblotting of Raji cells treated with TRAIL with or without CHIR-99021 (FIG. 9A); type: cell-based, human
Method: as §1, §2

Myc = Myc stabilization in B lymphoma cell lines with WT or mutant Myc-Thr58 treated with CHIR-99021 (FIG. 7); type: cell-based; settings: B lymphoma cell lines with WT-Myc-Thr58 or Mut-Myc-Thr58, treated for indicated periods of time
Method: FIG. 7: Stabilization of Myc by GSK3-inhibitors requires retention of the Myc-Threonine 58 residue: B lymphoma cell lines with WT-Myc-Thr58 (left panel) or Mut-Myc-Thr58 (right panel) were treated with CHIR-99021 for indicated periods of time.
As discussed above, treatment of Ramos cells [mutant for p53 and wild type for Myc (intact Threonine-58)] with GSK3-inhibitors increases the apoptotic response to drugs used to treat B cell lymphomas and leukemias within the CHOP-chemotherapeutic regimen: vincristine and doxorubicin. In our model, GSK3 inhibitors prevent phosphorylation of Myc at its Thr-58 residue by GSK3, inhibiting Myc degradation and inducing a transient stabilization and increase in the amount of the Myc protein. It has previously been shown that Myc-Thr58 is a hot spot for mutations in Burkitt's Lymphoma (Smith-Sorensen et al, JBC 1996), and when Myc-Thr58 is altered, the effect of transient stabilization induced by GSK3-inhibitors is lost (FIG. 7). Thus, cooperation of GSK3-inhibitors and chemotherapeutic drugs require retention of the Myc-Threonine-58 residue.

Myc/p53ER™ cells = assay: Apoptosis of Myc/p53ER B-lymphoma cells (FIGS. 1-3); type: cell-based, mice
Excerpt: Because many Myc-driven tumors are defective for p53 activity, we sought to determine whether transient up-regulation of Myc also increases cell death in response to chemotherapeutic drugs in a p53-deficient background. For this purpose, we used B-lymphoma cells isolated from bone marrows of p53ER™ knock-in mice and subsequently transduced with a Myc-expressing retrovirus (2,3). This inducible system allowed us to distinguish between p53-dependent (cells treated with tamoxifen) and independent (no tamoxifen added) cell death. Additionally, instead of modulating Myc levels through miRNA inhibitors, which currently have limited clinical utility, we increased Myc stability with a small molecule inhibitor of GSK3β, which promotes proteosomal degradation of Myc. […] To validate this effect in a more relevant setting, we inhibited GSK3β in various Burkitt's lymphoma cell lines and achieved consistent up-regulation of Myc.

SMILES: Cc1c[nH]c(-c2cnc(NCCNc3ccc(C#N)cn3)nc2-c2ccc(Cl)cc2Cl)n1 [CHIR-99021, 6-{2-[4-(2,4-dichlorophenyl)-5-(4-methyl-1H-imidazol-2-yl)-pyrimidin-2-ylamino]ethyl-amino}nicotinonitrile]
- apoptotic response to TRAIL (percentage of dead cells by Yo-Pro) (Ramos cells): increases the apoptotic response to TRAIL
- caspase 3 activity (Raji cells [1]): higher levels of caspase-3 activity
- cleaved caspase 8 and cleaved PARP by immunoblotting (Raji cells [2]; Raji cells pre-treated with CHIR-99021 followed by TRAIL vs TRAIL only): increase in the amount of cleaved caspase 8 and cleaved PARP
- apoptotic response to TRAIL (Raji cells [2]; Raji cells, TRAIL for 16 h in presence or absence of CHIR-99021): increases the apoptotic response to TRAIL
- levels of beta-catenin (Raji cells [2]; Raji cells, immunoblotting): increased levels of beta-catenin
- levels of mutant Myc (Raji cells [2]; Raji cells, immunoblotting): remain constant
- cell death with TRAIL and CHIR-99021 (Raji cells [2]; Raji cells, no functional p53 and mutant Myc-thr58): killed Raji cells
- stabilization of Myc (Myc): induces stabilization of Myc only when the Myc-Thr-58 residue is retained

SMILES: COc1cccc2c1C(=O)c1c(O)c3c(c(O)c1C2=O)C[C@@](O)(C(=O)CO)C[C@@H]3O[C@H]1C[C@H](N)[C@H](O)[C@H](C)O1 [doxorubicin]
- cell killing / apoptosis (Myc/p53ER™ cells; absence of active p53 (no tamoxifen)): cell killing was rather inefficient

SMILES: CC/C(=C(\c1ccccc1)c1ccc(OCCN(C)C)cc1)c1ccccc1 [tamoxifen]
- apoptosis by activation of p53 (Myc/p53ER™ cells; tamoxifen added, without doxorubicin or modulation of Myc): sufficient to induce robust apoptosis
